Values after ≈ are worked out from the molar mass of the structure shown. Values belong to the molecule of their own block, whether it stands above or below them. Active and inactive are the calls of the source. The rule behind the calls is not given here.
Key:
[1] = target: T1, Calcitonin gene-related peptide type 1 receptor (Homo sapiens, UniProt O60894+Q16602); experiment: Displacement of [125I]-CGRP from CGRP receptor in human SK-N-MC cells after 2 hrs by gamma scintillation counter analysis; assay type: cell-based
T1 sequence (Q16602 whole entry, one chain of several): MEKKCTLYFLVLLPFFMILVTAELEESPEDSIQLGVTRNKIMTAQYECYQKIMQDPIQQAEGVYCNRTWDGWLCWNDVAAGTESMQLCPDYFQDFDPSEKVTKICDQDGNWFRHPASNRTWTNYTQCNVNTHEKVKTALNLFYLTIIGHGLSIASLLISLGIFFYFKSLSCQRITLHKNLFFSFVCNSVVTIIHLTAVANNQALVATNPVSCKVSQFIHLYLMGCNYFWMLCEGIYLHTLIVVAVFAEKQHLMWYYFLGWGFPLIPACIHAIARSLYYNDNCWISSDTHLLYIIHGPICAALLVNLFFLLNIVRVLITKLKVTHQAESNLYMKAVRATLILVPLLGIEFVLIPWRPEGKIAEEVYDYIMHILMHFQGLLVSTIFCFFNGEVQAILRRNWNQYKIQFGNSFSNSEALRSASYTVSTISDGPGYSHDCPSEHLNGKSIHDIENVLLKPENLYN

[2] = Fraction unbound in human plasma; assay type: ADME, cell-free
[3] = Half life in human liver microsomes; assay type: ADME, Microsome
[4] = Aqueous solubility of the compound in amorphous form; assay type: physicochemical
[5] = target: T1, Calcitonin gene-related peptide type 1 receptor; experiment: Antagonist activity at CGRP receptor in human SK-N-MC cells assessed as inhibition of CGRP-stimulated cAMP production preincubated for 15 mins prior to CGRP challenge measured after 30 mins by HTRF assay; assay type: functional, cell-based
[6] = target: Voltage-gated inwardly rectifying potassium channel KCNH2 (Homo sapiens, UniProt Q12809); experiment: Inhibition of human ERG alpha subunit expressed in HEK293 cells at 10 to 30 uM; assay type: cell-based
Chain of Voltage-gated inwardly rectifying potassium channel KCNH2 (Q12809 whole entry): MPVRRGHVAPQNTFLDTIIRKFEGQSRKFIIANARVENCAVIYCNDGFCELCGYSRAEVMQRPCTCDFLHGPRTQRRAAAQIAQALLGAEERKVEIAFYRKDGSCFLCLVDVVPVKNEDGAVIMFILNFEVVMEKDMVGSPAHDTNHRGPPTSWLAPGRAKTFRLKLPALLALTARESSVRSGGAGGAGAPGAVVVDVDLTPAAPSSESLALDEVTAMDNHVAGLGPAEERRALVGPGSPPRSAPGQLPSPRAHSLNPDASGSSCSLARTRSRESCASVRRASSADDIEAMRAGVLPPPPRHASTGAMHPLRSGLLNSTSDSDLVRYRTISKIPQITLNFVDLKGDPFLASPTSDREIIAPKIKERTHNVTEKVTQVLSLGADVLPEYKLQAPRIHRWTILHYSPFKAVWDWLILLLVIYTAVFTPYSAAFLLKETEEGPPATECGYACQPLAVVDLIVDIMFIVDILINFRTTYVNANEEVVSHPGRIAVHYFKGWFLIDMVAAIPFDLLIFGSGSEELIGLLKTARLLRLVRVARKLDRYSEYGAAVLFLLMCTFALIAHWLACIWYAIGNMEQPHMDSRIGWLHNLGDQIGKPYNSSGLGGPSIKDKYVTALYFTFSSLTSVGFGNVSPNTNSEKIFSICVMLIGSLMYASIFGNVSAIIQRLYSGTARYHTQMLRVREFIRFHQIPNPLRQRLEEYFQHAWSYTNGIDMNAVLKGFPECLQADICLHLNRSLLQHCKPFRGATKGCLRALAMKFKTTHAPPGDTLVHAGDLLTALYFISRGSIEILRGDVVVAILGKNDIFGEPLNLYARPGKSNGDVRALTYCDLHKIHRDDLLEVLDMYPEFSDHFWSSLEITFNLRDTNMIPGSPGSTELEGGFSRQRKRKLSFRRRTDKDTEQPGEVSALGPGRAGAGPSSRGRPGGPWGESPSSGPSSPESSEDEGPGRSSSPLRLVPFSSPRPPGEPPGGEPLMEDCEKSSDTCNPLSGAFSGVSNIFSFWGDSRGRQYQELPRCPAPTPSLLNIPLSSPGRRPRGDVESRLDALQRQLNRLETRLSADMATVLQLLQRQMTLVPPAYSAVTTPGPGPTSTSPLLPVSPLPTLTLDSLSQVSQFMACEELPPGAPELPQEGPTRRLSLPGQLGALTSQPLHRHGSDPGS

[7] = target: Cytochrome P450 2C9 (Homo sapiens, UniProt P11712); experiment: Inhibition of human recombinant CYP2C9 using 7-methoxy-4-trifluoromethylcoumarin as substrate after 45 mins by fluorescence assay; assay type: ADME
Chain of Cytochrome P450 2C9 (P11712 whole entry): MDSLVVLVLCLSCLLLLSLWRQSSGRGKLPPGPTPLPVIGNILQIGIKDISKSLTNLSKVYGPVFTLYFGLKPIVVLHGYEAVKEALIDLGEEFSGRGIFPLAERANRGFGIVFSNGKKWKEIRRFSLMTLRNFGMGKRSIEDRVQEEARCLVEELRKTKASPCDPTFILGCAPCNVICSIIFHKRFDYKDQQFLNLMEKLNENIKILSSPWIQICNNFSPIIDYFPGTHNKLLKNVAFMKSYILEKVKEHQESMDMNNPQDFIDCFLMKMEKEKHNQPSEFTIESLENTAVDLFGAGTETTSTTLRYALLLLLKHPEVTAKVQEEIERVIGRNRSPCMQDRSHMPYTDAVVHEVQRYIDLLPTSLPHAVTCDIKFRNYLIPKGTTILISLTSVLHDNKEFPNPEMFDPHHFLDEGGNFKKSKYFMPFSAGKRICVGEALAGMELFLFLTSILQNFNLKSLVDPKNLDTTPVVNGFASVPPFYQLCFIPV

[8] = system: Callithrix jacchus; experiment: Antagonist activity at CGRP receptor in Harlan marmoset assessed as inhibition of alphaCGRP-induced facial blood flow at 7 mg/kg, sc administered 45 mins interval for 2 hrs post alphaCGRP challenge measured after 60 to 105 mins by laser droppler flowmetry relative to control; assay type: functional; conditions: route subcutaneous
[9] = Plasma concentration in Harlan marmoset at 7 mg/kg, sc after 60 to 105 mins; assay type: ADME, organism-based, Callithrix jacchus; set-up: dose 7 mg/kg, route subcutaneous; conditions: in vivo
[10] = Oral bioavailability in fasted Sprague-Dawley rat at 10 mg/kg administered as solution; assay type: ADME, organism-based; conditions: in vivo
[11] = target: Cytochrome P450 2D6 (Homo sapiens, UniProt P10635); experiment: Inhibition of human recombinant CYP2D6 using 3-[2-(N,N-diethyl-Nmethylamino) ethyl]-7-methoxy-4-methylcoumarin as substrate after 45 mins by fluorescence assay; assay type: ADME
Chain of Cytochrome P450 2D6 (P10635 whole entry): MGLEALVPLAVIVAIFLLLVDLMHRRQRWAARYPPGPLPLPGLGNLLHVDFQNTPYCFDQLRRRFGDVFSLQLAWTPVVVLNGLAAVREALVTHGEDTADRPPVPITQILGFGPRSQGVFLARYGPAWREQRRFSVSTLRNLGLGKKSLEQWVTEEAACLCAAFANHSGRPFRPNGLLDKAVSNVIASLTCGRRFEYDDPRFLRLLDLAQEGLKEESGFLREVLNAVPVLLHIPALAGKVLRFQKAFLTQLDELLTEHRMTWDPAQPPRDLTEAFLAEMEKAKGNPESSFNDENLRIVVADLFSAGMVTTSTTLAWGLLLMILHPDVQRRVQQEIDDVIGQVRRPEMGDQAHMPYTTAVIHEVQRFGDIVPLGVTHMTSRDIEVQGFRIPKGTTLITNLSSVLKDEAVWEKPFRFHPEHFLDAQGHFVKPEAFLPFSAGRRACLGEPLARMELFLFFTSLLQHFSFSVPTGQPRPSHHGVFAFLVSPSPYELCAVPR

[12] = system: Callithrix jacchus; experiment: Antagonist activity at CGRP receptor in Harlan marmoset assessed as inhibition of CGRP-induced facial blood flow at 7 mg/kg, sc administered 45 mins interval for 2 hrs post alphaCGRP challenge measured at 15 mins by laser droppler flowmetry relative to control; assay type: functional; conditions: route subcutaneous
[13] = Oral bioavailability in overnight fasted cynomolgus monkey at 10 mg/kg administered as solution; assay type: ADME, organism-based, Macaca fascicularis; conditions: in vivo
[14] = target: T2, Cytochrome P450 2B6 (Homo sapiens, UniProt P20813); experiment: Inhibition of human recombinant CYP2B6 after 45 mins by fluorescence assay; assay type: ADME
T2 sequence (P20813 whole entry): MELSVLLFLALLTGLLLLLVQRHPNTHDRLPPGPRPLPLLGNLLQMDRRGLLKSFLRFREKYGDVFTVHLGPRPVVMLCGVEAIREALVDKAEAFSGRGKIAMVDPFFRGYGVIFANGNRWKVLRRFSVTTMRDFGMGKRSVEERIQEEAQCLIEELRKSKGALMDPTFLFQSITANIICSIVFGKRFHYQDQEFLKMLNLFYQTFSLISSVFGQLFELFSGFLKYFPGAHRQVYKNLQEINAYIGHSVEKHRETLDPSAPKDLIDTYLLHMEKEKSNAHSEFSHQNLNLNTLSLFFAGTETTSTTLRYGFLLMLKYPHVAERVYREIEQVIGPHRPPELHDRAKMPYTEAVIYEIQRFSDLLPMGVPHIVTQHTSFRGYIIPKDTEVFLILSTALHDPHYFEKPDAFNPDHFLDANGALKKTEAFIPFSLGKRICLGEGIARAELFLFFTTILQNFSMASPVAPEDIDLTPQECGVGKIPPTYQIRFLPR

[15] = target: T3, Cytochrome P450 1A2 (Homo sapiens, UniProt P05177); experiment: Inhibition of human recombinant CYP1A2 using 3-cyano-7-ethoxycoumarine as substrate after 45 mins by fluorescence assay; assay type: ADME
T3 sequence (P05177 whole entry): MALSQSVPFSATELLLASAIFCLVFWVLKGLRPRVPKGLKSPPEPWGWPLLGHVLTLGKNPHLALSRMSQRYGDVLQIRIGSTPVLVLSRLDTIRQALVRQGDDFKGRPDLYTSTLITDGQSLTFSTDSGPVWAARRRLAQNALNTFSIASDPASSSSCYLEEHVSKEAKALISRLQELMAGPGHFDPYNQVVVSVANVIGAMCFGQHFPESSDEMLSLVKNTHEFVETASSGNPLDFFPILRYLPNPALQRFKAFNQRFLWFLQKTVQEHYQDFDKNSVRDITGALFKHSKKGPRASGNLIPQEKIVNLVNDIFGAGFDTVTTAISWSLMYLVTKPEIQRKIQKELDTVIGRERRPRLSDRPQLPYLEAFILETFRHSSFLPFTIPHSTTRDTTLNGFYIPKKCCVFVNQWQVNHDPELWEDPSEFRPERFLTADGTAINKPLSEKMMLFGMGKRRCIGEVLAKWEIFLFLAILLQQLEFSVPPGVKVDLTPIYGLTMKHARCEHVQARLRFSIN

[16] = target: Cytochrome P450 2E1 (Homo sapiens, UniProt P05181); experiment: Inhibition of human recombinant CYP2E1 after 45 mins by fluorescence assay; assay type: ADME
Chain of Cytochrome P450 2E1 (P05181 whole entry): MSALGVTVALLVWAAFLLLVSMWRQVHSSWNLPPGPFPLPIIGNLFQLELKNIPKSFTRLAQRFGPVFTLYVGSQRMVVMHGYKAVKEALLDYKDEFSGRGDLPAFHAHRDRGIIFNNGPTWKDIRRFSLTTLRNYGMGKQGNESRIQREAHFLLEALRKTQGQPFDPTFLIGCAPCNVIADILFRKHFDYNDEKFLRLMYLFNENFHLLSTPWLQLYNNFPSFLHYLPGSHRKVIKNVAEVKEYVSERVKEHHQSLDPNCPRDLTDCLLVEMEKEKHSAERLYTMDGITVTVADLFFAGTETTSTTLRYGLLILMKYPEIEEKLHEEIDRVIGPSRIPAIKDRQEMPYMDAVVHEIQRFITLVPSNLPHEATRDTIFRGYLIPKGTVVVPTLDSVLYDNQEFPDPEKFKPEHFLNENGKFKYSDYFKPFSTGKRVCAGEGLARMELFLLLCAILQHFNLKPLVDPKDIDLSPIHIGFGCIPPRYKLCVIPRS

[17] = species: Homo sapiens; experiment: Toxicity in human up to 600 mg; assay type: organism-based; conditions: in vivo
[18] = Permeability of the compound at 100 uM at pH 5.5 after 4 hrs by PAMPA; assay type: ADME; conditions: read-out: permeability
[19] = Oral bioavailability in overnight fasted cynomolgus monkey at 10 mg/kg administered as suspension of crystalline free base; assay type: ADME, organism-based, Macaca fascicularis; conditions: in vivo
[20] = target: Voltage-gated L-type calcium channel (Homo sapiens, UniProt Q13936+Q13698+Q01668+O60840); experiment: Inhibition of L type calcium channel expressed in HEK293 cells at 10 to 30 uM; assay type: cell-based
[21] = target: T4, Cytochrome P450 2A6 (Homo sapiens, UniProt P11509); experiment: Inhibition of human recombinant CYP2A6 after 45 mins by fluorescence assay; assay type: ADME
T4 sequence (P11509 whole entry): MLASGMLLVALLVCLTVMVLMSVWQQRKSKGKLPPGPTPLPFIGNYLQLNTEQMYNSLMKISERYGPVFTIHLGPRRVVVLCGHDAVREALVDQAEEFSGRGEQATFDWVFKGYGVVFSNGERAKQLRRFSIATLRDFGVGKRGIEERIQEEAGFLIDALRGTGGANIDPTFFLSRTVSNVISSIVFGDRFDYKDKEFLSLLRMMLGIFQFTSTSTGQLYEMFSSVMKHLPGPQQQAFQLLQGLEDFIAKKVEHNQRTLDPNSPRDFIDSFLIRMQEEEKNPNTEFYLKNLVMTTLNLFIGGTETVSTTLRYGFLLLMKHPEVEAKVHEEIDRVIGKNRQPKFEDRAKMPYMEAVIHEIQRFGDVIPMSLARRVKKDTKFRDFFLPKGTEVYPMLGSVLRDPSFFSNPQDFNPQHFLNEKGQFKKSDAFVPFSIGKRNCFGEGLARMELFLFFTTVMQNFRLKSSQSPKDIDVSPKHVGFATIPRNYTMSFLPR

[22] = Aqueous solubility of the compound in crystalline form; assay type: physicochemical
[23] = Permeability of the compound at 100 uM at pH 7.4 after 4 hrs by PAMPA; assay type: ADME; conditions: read-out: permeability
[24] = system: Salmonella typhimurium; experiment: Genotoxicity in Salmonella typhimurium by Ames test; assay type: toxicity, organism-based; conditions: salmonella enterica subsp. enterica serovar typhimurium
[25] = target: Cytochrome P450 2C19 (Homo sapiens, UniProt P33261); experiment: Inhibition of human recombinant CYP2C19 using 3-cyano-7-ethoxycoumarine as substrate after 45 mins by fluorescence assay; assay type: ADME
Chain of Cytochrome P450 2C19 (P33261 whole entry): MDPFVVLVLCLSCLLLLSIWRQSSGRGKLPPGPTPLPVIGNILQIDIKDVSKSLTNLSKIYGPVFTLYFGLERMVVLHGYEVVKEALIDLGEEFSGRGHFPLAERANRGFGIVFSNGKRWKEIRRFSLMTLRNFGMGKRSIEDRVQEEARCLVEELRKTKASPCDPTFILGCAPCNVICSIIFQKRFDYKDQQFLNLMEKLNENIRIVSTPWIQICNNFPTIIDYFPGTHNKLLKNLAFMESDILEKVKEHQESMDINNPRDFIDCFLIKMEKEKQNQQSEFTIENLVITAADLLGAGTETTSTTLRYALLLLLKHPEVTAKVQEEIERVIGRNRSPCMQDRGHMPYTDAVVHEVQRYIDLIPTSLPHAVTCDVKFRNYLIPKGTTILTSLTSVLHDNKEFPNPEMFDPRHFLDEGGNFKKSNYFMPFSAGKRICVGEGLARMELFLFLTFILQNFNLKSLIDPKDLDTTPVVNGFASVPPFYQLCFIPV

[26] = Plasma concentration in Harlan marmoset at 7 mg/kg, sc at 15 mins; assay type: ADME, organism-based, Callithrix jacchus; set-up: dose 7 mg/kg, route subcutaneous
[27] = system: HEK293; experiment: Inhibition of L type sodium channel expressed in HEK293 cells at 10 to 30 uM; assay type: cell-based; conditions: Homo sapiens

Ki [1]: 0.066 nM
SMILES: [N-]=[N+]=N[C@@H]1c2cccnc2[C@H](OC(=O)N2CCC(n3c(=O)[nH]c4ncccc43)CC2)CC[C@H]1c1cccc(F)c1F

EC50 [5]: 0.14 nM | IC50 [7]: ≥ 20000 nM | fraction unbound [2]: 0.069 | concentration [9]: < 800 nM | bioavailability [10]: 45% | IC50 [11]: ≥ 20000 nM | half-life [3]: 1.38 h | bioavailability [13]: 67% | IC50 [14]: ≥ 20000 nM | IC50 [15]: ≥ 20000 nM | IC50 [16]: ≥ 20000 nM | Papp at 4 h, 100 µM [18]: 19 ×10⁻⁶ cm/s | bioavailability [19]: 48% | inhibition (INH) [20]: Not Active | IC50 [21]: ≥ 20000 nM | solubility [22]: 50 µg/mL (≈ 93.5 µM) | Papp at 4 h, 100 µM [23]: 32 ×10⁻⁶ cm/s | Ki [1]: 0.027 nM | IC50 [25]: ≥ 20000 nM | concentration at 0.25 h [26]: 400 nM
SMILES: N[C@@H]1c2cccnc2[C@H](OC(=O)N2CCC(n3c(=O)[nH]c4ncccc43)CC2)CC[C@H]1c1cccc(F)c1F [RIMEGEPANT]
inhibition (INH) [6]: < 30% | inhibition in vivo at 7 mg/kg [8]: 75% | inhibition in vivo at 7 mg/kg [12]: > 65% | Activity [17]: Non-toxic | Activity [24]: Non-toxic | inhibition [27]: inactive

The remaining lines, values behind:

SMILES: O=C(O[C@@H]1CC[C@@H](c2cccc(F)c2F)[C@@H](O)c2cccnc21)N1CCC(n2c(=O)[nH]c3ncccc32)CC1
Ki [1]: 4.3 nM

SMILES: O=C(O[C@@H]1CC[C@@H](c2cccc(F)c2F)[C@H](O)c2cccnc21)N1CCC(n2c(=O)[nH]c3ncccc32)CC1
fraction unbound [2]: 0.041 | half-life [3]: 1.17 h | Ki [1]: 0.081 nM | solubility [4]: 66 µg/mL (≈ 123 µM)

SMILES: O=C(O[C@@H]1CC[C@H](c2cccc(F)c2F)[C@H](O)c2cccnc21)N1CCC(n2c(=O)[nH]c3ncccc32)CC1 (mixture of isomers)
Ki [1]: 0.67 nM

Reference: ChEMBL document CHEMBL2176923, “Discovery of (5S,6S,9R)-5-amino-6-(2,3-difluorophenyl)-6,7,8,9-tetrahydro-5H-cyclohepta[b]pyridin-9-yl 4-(2-oxo-2,3-dihydro-1H-imidazo[4,5-b]pyridin-1-yl)piperidine-1-carboxylate (BMS-927711): an oral calcitonin gene-related peptide (CGRP) antagonist in clinical trials for treating migraine” (J Med Chem, 2012)
